From patent US20100028325A1, “New Combination Of Cationic Preservatives With Taste-Masking Components” (LABORATORIOS MIRET, S.A., priority 2007, published 2010) come the findings set out here.

What all share (assay type): in vivo, human
Test [1] concerns panel of 10 persons. Kind of test: Taste masking effect on MDLA (200 ppm) in carbonated juice drink. The settings on record: scale 1-no taste to 7-unbearable taste. The method, then: The evaluation of the taste was based on the article titled “Reduction of saltiness and bitterness after a chlorhexidine rinse”, Chem. Senses 26: 105-116 (2001). […] The organoleptic studies were performed with a panel of 10 persons who were trained in experiments involving the tasting of bitter constituents. The panel was asked to compare samples containing a cationic surfactant alone or combined with one or more masking agent. The members of the panel were asked to indicate which sample was less bitter, thereby taking into account the scale of values defined as given above.

Test [2] relates to panel of 10 persons. Kind of test: Organoleptic taste evaluation of LAE (200 ppm) with masking agents in carbonated juice drink. The note with it: scale 1-no taste to 7-unbearable taste. On the procedure:
The combination of the test compound neohespiridin (NHDC) with LAE was investigated in a carbonated oral juice drink (a base sugar syrup with concentrated organic juice, manufactured by […] control solution of 200 ppm LAE in the juice drink was prepared. The test samples were prepared by direct dissolution of the test compound in the control solution. The test samples were compared with the control solution and with an untreated (blank) juice drink. The evaluation of the taste was based on the article titled “Reduction of saltiness and bitterness after a chlorhexidine rinse”, Chem. Senses 26: 105-116 (2001). […] The organoleptic studies were performed with a panel of 10 persons who were trained in experiments involving the tasting of bitter constituents. The panel was asked to compare samples containing a cationic surfactant alone or combined with one or more masking agent. The members of the panel were asked to indicate which sample was less bitter, thereby taking into account the scale of values defined as given above. The combination of LAE with only one masking agent, NAF®, was compared with a combination of several masking agents (one of these being NAF®) in carbonated orange juice drinks. The manner of determination of the organoleptic results is the same as described in example 1. The results are reported in the following table 3 where a solution A is compared with a solution B. Composition of solutions (all containing 200 ppm LAE): […] Different types of NAF® are investigated ([…] lemon, NAF® C Orange, etc., all produced by Ogawa). The carbonated orange juice drink is produced by Hausmann S.A.

For test [3], the system named is panel of 10 persons. Kind of test: Determination of the taste in toothpaste containing LAE (7,500 ppm). The settings on record: scale 1-no taste to 7-unbearable taste. On the procedure: The evaluation of the taste was based on the article titled “Reduction of saltiness and bitterness after a chlorhexidine rinse”, Chem. Senses 26: 105-116 (2001). […] The organoleptic studies were performed with a panel of 10 persons who were trained in experiments involving the tasting of bitter constituents. The panel was asked to compare samples containing a cationic surfactant alone or combined with one or more masking agent. The members of the panel were asked to indicate which sample was less bitter, thereby taking into account the scale of values defined as given above. Determination of the taste in toothpaste. The toothpaste used is a standard opaque […] prepared by the addition of (in g): [table] […] A control sample contained LAE in a concentration of 7,500 ppm. The same concentration of LAE was present in all further investigated samples. […] The sweetening agents sorbitol and lactilol were investigated in the same test as described in example 11. The samples were prepared in similar manner, the concentration of LAE was 7,500 ppm.

The subject of another test is consumer. Kind of test: Organoleptic experiments (beverages, toothpaste, food matrix, cosmetic preparation). The note with it: for neutralisation of the bitter taste of the cationic surfactant: high doses, combined with a cationic surfactant of formula (1), numerous experiments.
Test [4] relates to panel of 10 persons. Kind of test: Determination of the taste masking in toothpaste containing MDLA (7,500 ppm). The settings on record: product 3,330 ppm + 7,500 ppm MDLA in toothpaste; scale 1-no taste to 7-unbearable taste. On the procedure: The evaluation of the taste was based on the article titled “Reduction of saltiness and bitterness after a chlorhexidine rinse”, Chem. Senses 26: 105-116 (2001). […] The organoleptic studies were performed with a panel of 10 persons who were trained in experiments involving the tasting of bitter constituents. The panel was asked to compare samples containing a cationic surfactant alone or combined with one or more masking agent. The members of the panel were asked to indicate which sample was less bitter, thereby taking into account the scale of values defined as given above. Determination of the taste masking in toothpaste. The toothpaste used was produced in the manner described in example 11.

Where [5] appears, read: test compound 1,000 ppm + 200 ppm MDLA in juice drink.
[6] abbreviates: test compound 500 ppm + 200 ppm LAE in juice drink.
Where [7] appears, read: test compound 1,000 ppm + 200 ppm LAE in juice drink.
The mark [8] stands for this setting: sweetening agent 200,000 ppm + 7,500 ppm LAE in toothpaste.
The mark [9] stands for this setting: test compound 10,000 ppm + 200 ppm MDLA in juice drink.
Where [10] appears, read: test compound 10,000 ppm + 200 ppm LAE in juice drink.
Where [11] appears, read: test compound 60,000 ppm + 200 ppm LAE in juice drink.

On to `CC1(C)[C@@H](O[C@H]2O[C@H](C(=O)O)[C@@H](O)[C@H](O)[C@H]2O[C@@H]2O[C@H](C(=O)O)[C@@H](O)[C@H](O)[C@H]2O)CC[C@]2(C)[C@H]3C(=O)C=C4[C@@H]5C[C@@](C)(C(=O)O)CC[C@]5(C)CC[C@@]4(C)[C@]3(C)CC[C@@H]12` [Glycyrrhizinate, monoammonium glycyrrhizinate], for which the Organoleptic results worked out at 2.4 in the test on panel of 10 persons [1] (setting [5]), 2.3 with panel of 10 persons [2] (test compound 250 ppm + 200 ppm LAE in juice drink), 2 in the test on panel of 10 persons [2] (setting [6]) and 2 in the test with panel of 10 persons [2] (setting [7]).

For the compound `CCCCCCCCCCCC(=O)N[C@@H](CCCN=C(N)N)C(=O)OCC.Cl` [LAE, ethyl ester of the lauramide of the arginine monohydrochloride], the Organoleptic result with panel of 10 persons [3] (Control: 7,500 ppm LAE in toothpaste, no masking agent) is 5.4.

As to `OC[C@@H](O)[C@@H](O[C@@H]1O[C@H](CO)[C@H](O)[C@H](O)[C@H]1O)[C@H](O)[C@@H](O)CO` [Lactitol, lactitol], the “neutralisation of the bitter taste of the cationic surfactant” value (“neutralisation” for short) with consumer is recorded as “does not neutralise the bitter taste”. Besides, the Organoleptic result with panel of 10 persons [3] (setting [8]) worked out at 5.1.

On to `COc1ccc(CCC(=O)c2c(O)cc(O[C@@H]3O[C@H](CO)[C@@H](O)[C@H](O)[C@H]3O[C@@H]3O[C@@H](C)[C@H](O)[C@@H](O)[C@H]3O)cc2O)cc1O` [NHDC], for which the Organoleptic results in the test on panel of 10 persons [2] (test compound 1 ppm + 200 ppm LAE in juice drink) amounted to 2.5.

In the case of `CCCCCCCCCCCCOS(=O)(=O)[O-].[Na+]` [SDS, sodium dodecyl sulfate], the Organoleptic results was determined as 2.6 in the test with panel of 10 persons [1] (test compound 3,320 ppm + 200 ppm MDLA in juice drink), 2.9 in the test with panel of 10 persons [2] (test compound 1,330 ppm + 200 ppm LAE in juice drink), 2.3 in the test with panel of 10 persons [2] (test compound 1,960 ppm + 200 ppm LAE in juice drink) and 1.6 in the test on panel of 10 persons [2] (test compound 3,320 ppm + 200 ppm LAE in juice drink). Besides, the Organoleptic result in the test with panel of 10 persons [4] was found to be 2.9; in the test on panel of 10 persons [3] (product 1,960 ppm + 7,500 ppm LAE in toothpaste), 2.9; with panel of 10 persons [3] (product 3,330 ppm + 7,500 ppm LAE in toothpaste), 2.8. In the test with consumer (cationic surfactant of formula (1) combined only with SDS, cosmetic preparation), the “taste of the toothpaste” value is listed as “smooth taste”.

Turning to `OC[C@@H](O)[C@@H](O)[C@H](O)[C@@H](O)CO` [Sorbitol, sorbitol], the “neutralisation” value in the test on consumer is given as “does not neutralise the bitter taste”. Further, in the test with panel of 10 persons [3] (setting [8]), the Organoleptic result was determined as 4.9.

`OC[C@H]1O[C@H](O[C@]2(CCl)O[C@H](CCl)[C@@H](O)[C@@H]2O)[C@H](O)[C@@H](O)[C@H]1Cl` [Sucralose, sucralose]: in the test with panel of 10 persons [2] (test compound 5 ppm + 200 ppm LAE in juice drink), the Organoleptic results is 2.7.

`OC[C@@H](O)[C@@H](O)[C@H](O)[C@H](O)CO` [mannitol]: the “neutralisation” value in the test with consumer is reported as “does not neutralise the bitter taste”.

On to `CC(=O)[O-].[Na+]` [sodium acetate], for which the results for the Organoleptic results in the test with panel of 10 persons [1] (setting [9]), in the test with panel of 10 persons [2] (setting [7]) and in the test with panel of 10 persons [2] (setting [10]) were 2.8, 2.8 and 2.3, respectively.

As to `N[C@@H](CCC(=O)[O-])C(=O)[O-].[Na+].[Na+]` [sodium glutamate], the Organoleptic results in the test on panel of 10 persons [1] (setting [5]) amounted to 5.4; in the test with panel of 10 persons [2] (setting [7]), 5.0; in the test with panel of 10 persons [2] (setting [11]), 4.8.

Consider `OC[C@H]1O[C@@](CO)(O[C@H]2O[C@H](CO)[C@@H](O)[C@H](O)[C@H]2O)[C@@H](O)[C@@H]1O` [sugar], for which the Organoleptic results with panel of 10 persons [1] (setting [9]) was found to be 5.1; with panel of 10 persons [2] (setting [10]) it was 5.0; with panel of 10 persons [2] (setting [11]), 4.8. The “neutralisation” value in the test on consumer is listed as “does not neutralise the bitter taste”.

On to `OC[C@H]1O[C@@H]2O[C@H]3[C@H](O)[C@@H](O)[C@@H](O[C@H]4[C@H](O)[C@@H](O)[C@@H](O[C@H]5[C@H](O)[C@@H](O)[C@@H](O[C@H]6[C@H](O)[C@@H](O)[C@@H](O[C@H]7[C@H](O)[C@@H](O)[C@@H](O[C@H]8[C@H](O)[C@@H](O)[C@@H](O[C@H]1[C@H](O)[C@H]2O)O[C@@H]8CO)O[C@@H]7CO)O[C@@H]6CO)O[C@@H]5CO)O[C@@H]4CO)O[C@@H]3CO` [β-cyclodextrin], for which the Organoleptic results in the test with panel of 10 persons [2] (setting [7]) turned out to be 2.1. Further, in the test on panel of 10 persons [3] (product 2,000 ppm + 7,500 ppm LAE in toothpaste), the Organoleptic result was 2.7.

For lysozyme, the figures for the Organoleptic results in the test with panel of 10 persons [1] (test compound 2,500 ppm + 200 ppm MDLA in juice drink), in the test with panel of 10 persons [2] (setting [6]) and with panel of 10 persons [2] (test compound 2,500 ppm + 200 ppm LAE in juice drink) were 2.7, 2.5 and 2, respectively.
